# Patent US9718792B2, “Isoxazoline hydroxamic acid derivatives as LpxC inhibitors” (priority 2014, dated 2017)
# Read-outs that look alike come from different tables or passages of the source.
# Assays:
# P. aeruginosa LpxC = P. aeruginosa LpxC (Pseudomonas aeruginosa (strain ATCC 15692 / DSM 22644 / CIP 104116 / JCM 14847 / LMG 12228 / 1C / PRS 101 / PAO1), UniProt P47205); test: P. aeruginosa LpxC Inhibition Assay; assay type: biochemical; details: 1 nM P. aeruginosa LpxC, 2 μM substrate, LC-MS/MS; read-out: PA LpxC IC50
# From the text: The P. aeruginosa LpxC protein is produced according to the general method of Hyland et al (Journal of Bacteriology 1997 179, 2029-2037: Cloning, expression and purification of UDP-3-O-acyl-GIcNAc deacetylase from Pseudomonas aeruginosa: a metalloamidase of the lipid A biosynthesis pathway). The LC-MS/MS method for quantitation of LpxC product was developed using an Agilent 1200 Capillary HPLC system coupled to an Applied Biosystems MDS Sciex 4000QTRAP mass spectrometer. Both instruments are controlled using the Applied Biosystems MDS Sciex Analyst software. LpxC reaction product (UDP-3-O—(R-3-hydroxyacyl)-glucosamine) was produced by hydrolysis of LpxC substrate catalyzed by P.a. LpxC and purified using reversed phase chromatography on a Phenomenex Luna C18(2) 4.6×50 mm column. An LpxC product calibration curve was generated to evaluate the sensitivity and dynamic range of the LC-MS/MS method. Briefly, compounds are pre-incubated with 1 nM P. aeruginosa LpxC for 30 min. at room temperature. Reactions are initiated by the addition of 2 μM UDP-3-O—(R-3-hydroxydecanoyl)-GIcNAc. Reactions are conducted in a 384-well plate with a total volume of 50 μL in each well containing 50 mM Sodium phosphate pH 7.5, 0.005% Trition X-100 for 20 min at room temperature. After quenching with 1.8% HOAc (5 μL of a 20% HOAc added to each well), reaction mixtures are analyzed using the LC-MS/MS method and peak areas are transformed into product concentration using a LpxC product calibration curve. Total activity (0% inhibition control) is obtained from reactions with no inhibitors and 100% inhibition control is the background using quenched samples before reaction starts. For IC50 determinations, peak areas are converted to percent inhibition in Microsoft Excel. Percent inhibition values are plotted vs. log compound concentration using XLfit. Data is fit to the four-parameter logistic equation using the non-linear regression algorithm in XLfit to return the IC50 and hill slope values.
# P. aeruginosa PAO1 = test: Susceptibility Testing (MIC, broth microdilution); assay type: cell-based, Pseudomonas aeruginosa; details: Pseudomonas aeruginosa, PAO1, 20 h, read-out: PAO1 MIC
# Protocol: Bacterial isolates were cultivated from −70° C. frozen stocks by two consecutive overnight passages at 35° C. in ambient air on 5% blood agar (Remel, Lenexa, Kans.). Quality control and P. aeruginosa ATCC 27853) is from the American Type Culture Collection (ATCC; Rockville, Md.) and PAO1 was received from Dr. K. Poole.
# Minimal Inhibitory Concentrations (MICs) were determined by the broth microdilution method in accordance with Clinical and Laboratories Institute (CLSI) guidelines. In brief, fresh bacterial overnight cultures were resuspended in sterile saline, adjusted to a 0.5 McFarland turbidity standard and then diluted […] in cation adjusted Mueller-Hinton Broth II (MHB; Remel BBL) to yield a final inoculum of approximately 5×10^5 colony-forming units (CFU)/mL. Two-fold serial dilutions of compounds were prepared in 100% dimethyl sulfoxide (DMSO) at 100-fold the highest final assay concentration; the resulting dilution series of compounds were diluted 1:10 with sterile water. Ten μl of the drug dilution series in 10% DMSO was transferred to microtiter wells and 90 μl of bacterial suspension was inoculated into the wells. All inoculated microdilution trays were incubated in ambient air at […] for 20 hours. Following incubation, assay plates were read in a microtiter plate reader at 600 nm and visually inspected to confirm the MIC endpoint well with the OD value. The lowest concentration of the compound that prevented visible growth was recorded as the MIC. Performance of the assay was monitored by testing ciprofloxacin against laboratory quality control strains in accordance with guidelines of the CLSI.
# [1] = P. aeruginosa PAO1, broth microdilution, 20 hours
Structure (SMILES),IC50 (P. aeruginosa LpxC) [nM],MIC (P. aeruginosa PAO1; [1]) [µg/mL],MIC (P. aeruginosa PAO1) [µg/mL]
"CC(CC1CC(c2ccc(Br)cc2)=NO1)(C(=O)NO)S(C)(=O)=O (single isomer, unassigned) [Compound 1-B, 3-(3-(4-bromophenyl)-4,5-dihydroisoxazol-5-yl)-N-hydroxy-2-methyl-2-(methylsulfonyl)propanamide]",< 0.5,1,
"CC(CC1CC(c2ccc(-c3ccccc3)cc2)=NO1)(C(=O)NO)S(C)(=O)=O (single isomer, unassigned) [Compound 3-B, 3-(3-([1,1′-biphenyl]-4-yl)-4,5-dihydroisoxazol-5-yl)-N-hydroxy-2-methyl-2-(methylsulfonyl)propanamide]",1,0.25,
"CC#CCOc1ccc(C2=NOC(CC(C)(C(=O)NO)S(C)(=O)=O)C2)cc1 (single isomer, unassigned) [Compound 4-B, 3-(3-(4-(but-2-yn-1-yloxy)phenyl)-4,5-dihydroisoxazol-5-yl)-N-hydroxy-2-methyl-2-(methylsulfonyl)propanamide]",24,,8
"CCC#Cc1ccc(C2=NOC(CC(C)(C(=O)NO)S(C)(=O)=O)C2)cc1 (single isomer, unassigned) [Compound 8-B, 3-(3-(4-(but-1-yn-1-yl)phenyl)-4,5-dihydroisoxazol-5-yl)-N-hydroxy-2-methyl-2-(methylsulfonyl)propanamide]",0.5,1,
"CC(CC1CC(c2ccc(C#CCCO)cc2)=NO1)(C(=O)NO)S(C)(=O)=O (single isomer, unassigned) [Compound 10-B, N-hydroxy-3-(3-(4-(4-hydroxybut-1-yn-1-yl)phenyl)-4,5-dihydroisoxazol-5-yl)-2-methyl-2-(methylsulfonyl)propanamide]",< 0.5,1,
"CC#Cc1ccc(C2=NOC(CC(C)(C(=O)NO)S(C)(=O)=O)C2)cc1F (single isomer, unassigned) [Compound 12-B, 3-(3-(3-fluoro-4-(prop-1-yn-1-yl)phenyl)-4,5-dihydroisoxazol-5-yl)-N-hydroxy-2-methyl-2-(methylsulfonyl)propanamide]",2,2,
"C[C@@H](O)COc1ccc(-c2ccc(C3=NO[C@@H](C[C@](C)(C(=O)NO)S(C)(=O)=O)C3)cc2)cc1 [Compound 61, (R)—N-hydroxy-3-((R)-3-(4′-((R)-2-hydroxypropoxy)-[1,1′-biphenyl]-4-yl)-4,5-dihydroisoxazol-5-yl)-2-methyl-2-(methylsulfonyl)propanamide]",,0.25,
"C[C@@](C[C@H]1CC(c2ccc(-c3ccc(C(O)CO)cc3)cc2)=NO1)(C(=O)NO)S(C)(=O)=O (stereo partly drawn) [Compound 72, (2R)-3-((5R)-3-(4′-(1,2-dihydroxyethyl)-[1,1′-biphenyl]-4-yl)-4,5-dihydroisoxazol-5-yl)-N-hydroxy-2-methyl-2-(methylsulfonyl)propanamide]",,0.35,
"C[C@@](C[C@H]1CC(c2ccc(-c3ccc(C4(CO)CC4)cc3)cc2)=NO1)(C(=O)NO)S(C)(=O)=O [Compound 73, (R)—N-hydroxy-3-((R)-3-(4′-(1-(hydroxymethyl)cyclopropyl)-[1,1′-biphenyl]-4-yl)-4,5-dihydroisoxazol-5-yl)-2-methyl-2-(methylsulfonyl)propanamide]",,0.25,
"COc1cc(-c2ccc(C3=NO[C@@H](C[C@](C)(C(=O)NO)S(C)(=O)=O)C3)cc2)c(F)cn1 [Compound 80, (R)-3-((R)-3-(4-(5-fluoro-2-methoxypyridin-4-yl)phenyl)-4,5-dihydroisoxazol-5-yl)-N-hydroxy-2-methyl-2-(methylsulfonyl) propanamide]",,1,
"C[C@@](C[C@H]1CC(c2ccc(C#Cc3ccc([C@@H](O)CO)cc3)cc2)=NO1)(C(=O)NO)S(C)(=O)=O [Compound 97, (R)-3-((R)-3-(4-((4-((R)-1,2-dihydroxyethyl)phenyl)ethynyl)phenyl)-4,5-dihydroisoxazol-5-yl)-N-hydroxy-2-methyl-2-(methylsulfonyl) propanamide]",,0.71,
"COc1ccc(-c2ccc(C3=NO[C@@H](C[C@](C)(C(=O)NO)S(C)(=O)=O)C3)cc2F)cn1 [Compound 105, (R)-3-((R)-3-(3-fluoro-4-(6-methoxypyridin-3-yl)phenyl)-4,5-dihydroisoxazol-5-yl)-N-hydroxy-2-methyl-2-(methylsulfonyl)propanamide]",1,,
"C[C@@](C[C@H]1CC(c2ccc(-c3ccc(CO)nc3)c(F)c2)=NO1)(C(=O)NO)S(C)(=O)=O [Compound 109, (R)-3-((R)-3-(3-fluoro-4-(6-(hydroxymethyl)pyridin-3-yl)phenyl)-4,5-dihydroisoxazol-5-yl)-N-hydroxy-2-methyl-2-(methylsulfonyl)propanamide]",5,,

# Continued, in another order:
IC50 (P. aeruginosa LpxC) [nM],MIC (P. aeruginosa PAO1; [1]) [µg/mL],Structure (SMILES),MIC (P. aeruginosa PAO1) [µg/mL]
7,2,"CC(CC1CC(c2ccc(C3CC3)cc2)=NO1)(C(=O)NO)S(C)(=O)=O (single isomer, unassigned) [Compound 5-A, 3-(3-(4-cyclopropylphenyl)-4,5-dihydroisoxazol-5-yl)-N-hydroxy-2-methyl-2-(methylsulfonyl)propanamide]",
1,1,"CC(CC1CC(c2ccc(C#CC3CC3)c(F)c2)=NO1)(C(=O)NO)S(C)(=O)=O (single isomer, unassigned) [Compound 13-B, 3-(3-(4-(cyclopropylethynyl)-3-fluorophenyl)-4,5-dihydroisoxazol-5-yl)-N-hydroxy-2-methyl-2-(methylsulfonyl)propanamide]",
17,8,"CC#Cc1ccc(C2=NOC(CC(C)(C(=O)NO)S(C)(=O)=O)C2)nc1 (single isomer, unassigned) [Compound 14-B, N-hydroxy-2-methyl-2-(methylsulfonyl)-3-(3-(5-(prop-1-yn-1-yl)pyridin-2-yl)-4,5-dihydroisoxazol-5-yl)propanamide]",
4,8,"CC(CC1CC(c2ccc(C#CC3CC3)cn2)=NO1)(C(=O)NO)S(C)(=O)=O (single isomer, unassigned) [Compound 15-B, 3-(3-(5-(cyclopropylethynyl)pyridin-2-yl)-4,5-dihydroisoxazol-5-yl)-N-hydroxy-2-methyl-2-(methylsulfonyl)propanamide]",
0.6,1,"CC#Cc1ccc(C2=NOC(CC(C)(C(=O)NO)S(C)(=O)=O)C2)c(F)c1 (single isomer, unassigned) [Compound 16-B, 3-(3-(2-fluoro-4-(prop-1-yn-1-yl)phenyl)-4,5-dihydroisoxazol-5-yl)-N-hydroxy-2-methyl-2-(methylsulfonyl)propanamide]",
< 0.5,0.5,"CC(CC1CC(c2ccc(C#CC3CC3)cc2F)=NO1)(C(=O)NO)S(C)(=O)=O (single isomer, unassigned) [Compound 17-B, 3-(3-(4-(cyclopropylethynyl)-2-fluorophenyl)-4,5-dihydroisoxazol-5-yl)-N-hydroxy-2-methyl-2-(methylsulfonyl)propanamide]",
0.8,0.25,"CC#Cc1ccc(C2=NO[C@@H](C[C@](C)(C(=O)NO)S(C)(=O)=O)C2)cc1 [Compound 2-A, (R)—N-hydroxy-2-methyl-2-(methylsulfonyl)-3-((R)-3-(4-(prop-1-yn-1-yl)phenyl)-4,5-dihydroisoxazol-5-yl)propanamide]",
0.7,0.25,"C[C@@](C[C@H]1CC(c2ccc(C#CC3CC3)cc2)=NO1)(C(=O)NO)S(C)(=O)=O [Compound 6-A, (R)-3-((R)-3-(4-(cyclopropylethynyl)phenyl)-4,5-dihydroisoxazol-5-yl)-N-hydroxy-2-methyl-2-(methylsulfonyl)propanamide]",
